# Target: Apoptosis regulator Bcl-2 (Homo sapiens, UniProt P10415)
# Experiment: PubChem AID 950
# Settings: not given
# Apoptosis regulator Bcl-2, sequence (P10415 whole entry): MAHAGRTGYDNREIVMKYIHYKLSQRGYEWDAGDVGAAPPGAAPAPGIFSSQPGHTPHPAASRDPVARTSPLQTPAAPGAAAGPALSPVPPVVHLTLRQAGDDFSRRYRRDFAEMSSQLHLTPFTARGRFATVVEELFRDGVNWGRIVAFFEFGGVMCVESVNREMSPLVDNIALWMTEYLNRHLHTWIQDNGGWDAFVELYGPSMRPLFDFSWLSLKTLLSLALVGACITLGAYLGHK
row,Compound,EC50 [µM]
1,"CC(=O)c1ccc(NC(=O)c2ccc3nc(-c4ccco4)c(-c4ccco4)nc3c2)cc1 [N-(4-acetylphenyl)-2,3-di-2-furyl-6-quinoxalinecarboxamide]",8.54
2,CC(=NNC(=O)c1cc(O)c(O)c(O)c1)c1ccc([N+](=O)[O-])cc1 [SMR000312589],5.96
3,"COc1cccc2c(SCC(=O)NN=Cc3ccc(O)cc3O)cc(C)nc12 [N'-[(E)-(2-hydroxy-4-oxo-1-cyclohexa-2,5-dienylidene)methyl]-2-[(8-methoxy-2-methyl-4-quinolinyl)thio]acetohydrazide]",24.1
4,O=[N+]([O-])c1ccc(N=NCc2ccc(O)c(O)c2O)c(S(=O)(=O)N2CCOCC2)c1 [MLS000336720],4.66
5,O=C1c2ccccc2-c2onc3ccc(NCCCn4ccnc4)c1c23 [SMR000044769],4.05

# Same assay, conditions: inactive by the depositor's call
row,Compound,EC50 [µM]
1,O=C1c2ccccc2-c2onc3ccc(NCc4ccco4)c1c23 [MLS000080234],37.8
2,"CC(C)(C)NC(=O)COc1ccc(CNc2ccc3[nH]c(O)nc3c2)cc1 [N-tert-butyl-2-[4-[[(2-oxidanylidene-1,3-dihydrobenzimidazol-5-yl)amino]methyl]phenoxy]ethanamide]",4.65
3,O=C1C(=Cc2ccco2)NC(=S)N1c1ccccc1 [(5E)-5-(furan-2-ylmethylidene)-3-phenyl-2-sulfanylideneimidazolidin-4-one],27.2
4,CCOc1ccccc1CNc1ccc(O)cc1,3.63
5,c1coc(C2=Nc3cccc4cccc(c34)N2)c1 [2-(2-furanyl)-1H-perimidine],9.76
6,Fc1ccc(C2=Nc3cccc4cccc(c34)N2)cc1 [MLS000687139],9.27
7,"COc1ccc(C2=Nn3c(nnc3-c3ccco3)SC2)cc1OC [6-(3,4-Dimethoxy-phenyl)-3-furan-2-yl-7H-[1,2,4]triazolo[3,4-b][1,3,4]thiadiazine]",1.21
8,"O=C(NCc1ccccn1)c1ccc2nc(-c3ccco3)c(-c3ccco3)nc2c1 [2,3-di-2-furyl-N-(pyridin-2-ylmethyl)quinoxaline-6-carboxamide]",14.1
9,CCOC(=O)c1ccc(Nc2nc(C(=O)OCC)nc3ccccc23)cc1,1.51
10,"CCc1ccc(/C=C/C(=O)c2cc(Br)ccc(=O)c2O)cc1 [5-bromo-3-[(E)-3-(4-ethylphenyl)-1-oxoprop-2-enyl]-2-hydroxy-1-cyclohepta-2,4,6-trienone]",76.4
11,"Cc1cc(C)nc(SCc2cc(=O)c(OC(=O)c3ccc(Cl)c([N+](=O)[O-])c3)co2)n1 [4-chloro-3-nitrobenzoic acid [6-[[(4,6-dimethyl-2-pyrimidinyl)thio]methyl]-4-oxo-3-pyranyl] ester]",8.45
12,CCN(CC)C(=O)COC(=O)c1cc(-c2ccco2)nc2ccccc12 [SMR000377201],4.95
13,N#Cc1cc(-c2ccccc2)nn1-c1ccccc1,39.6
14,C#CCn1cc(C=C2C(=O)c3ccccc3C2=O)c2ccccc21 [SMR000196125],13.8
15,Nc1ccc(C2=Nc3cccc4cccc(c34)N2)cc1 [SMR000175908],18.1
16,"O=C(/C=C/c1ccccc1Cl)c1ccccc(=O)c1O [3-[(E)-3-(2-chlorophenyl)prop-2-enoyl]-2-oxidanyl-cyclohepta-2,4,6-trien-1-one]",15
17,O=C(c1ccccc1)c1ccc2nc(-c3ccco3)c(-c3ccco3)nc2c1,16
18,"COc1cc(C2Nc3cccc4cccc(c34)N2)ccc1OC(C)=O [Acetic acid 4-(2,3-dihydro-1H-perimidin-2-yl)-2-methoxy-phenyl ester]",11.4
19,COC(=O)CSc1ncnc2c1sc1nc(-c3ccco3)c3c(c12)CC(C)(C)OC3 [MLS000039339],27.6
20,Cc1ccc(-c2ccc(/C=C/C(=O)c3ccccc3)o2)cc1,8.47
21,"CN(N=Cc1ccncc1)C1=NS(=O)(=O)c2ccccc21 [isonicotinaldehyde (1,1-dioxido-1,2-benzisothiazol-3-yl)(methyl)hydrazone]",2.44
22,"CN(C)c1ccc(C=C2C(=O)NC(=O)NC2=O)cc1[N+](=O)[O-] [5-[[4-(dimethylamino)-3-nitrophenyl]methylidene]-1,3-diazinane-2,4,6-trione]",16.4

# Source: BindingDB's records for doi:10.7270/Q2B27SQ0 (Nmmlsc, 2008)
